According to patent US12325744B2, “Methods for reducing post-operative cognitive dysfunction (POCD)” (The Kennedy Trust for Rheumatology Research, priority 2010, dated 2025):
“Also recorded” adds a separate entry of the source.

What was measured:
[1] = system: C57-BL6 mice; experiment: Delay fear conditioning, auditory-cued test after tibial surgery; assay type: in vivo; details: wild type mice, surgery with IL-1Ra pre-treatment
Protocol: Fear conditioning tests. Mice were conditioned 30 minutes or 3 days prior to intervention by training with two cycles of tone and foot-shock pairings. In delay fear conditioning a foot-shock was administered during the last 2 seconds of each 20 seconds-lasting tone.
In trace fear conditioning, the foot-shock onset, lasting 2 seconds as in the previous paradigm, followed a 20-second gap after each tone termination. Three days after conditioning, mice were placed back in the original conditioning chamber for 270 seconds, where no tone or shock were presented, to assess recall of contextual fear memory. After 3 h mice were placed in a novel environment (different context from training) to test for auditory-cued memory. Following an initial baseline period of 135 seconds during which freezing was scored in absence of noise, the auditory cue was presented for the final 135 seconds of the test, and freezing was again recorded. (For further details please refer to supplemental methods).
The behavioral study was conducted using a conditioning chamber (Med. Associates Inc., St. Albans, VT, USA). The back- and the side-walls of the chamber were made of aluminium, whereas the front door and the ceiling were of transparent Plexiglas. The floor of the chamber consisted of 36 stainless steel rods (1 mm diameter) spaced 0.5 cm apart (center-to-center). […]

[2] = system: IL-1β; experiment: Plasma (systemic) IL-1β by ELISA after tibial surgery; assay type: in vivo; details: wild type mice, minocycline 40 mg/kg i.p., enrofloxacin 10 mg/kg or IL-1Ra 100 mg/kg given prior to surgery, vs surgery alone
Excerpt: Mice were subjected to an open tibial fracture of the left hind paw with intramedullary fixation in aseptic conditions under general anaesthesia with isoflurane and analgesia with buprenorphineas previously described^18. Other groups of animals were not subjected to any intervention (naïve), or received anesthetic/analgesia alone, or underwent surgery with concurrent administration of minocycline, enrofloxacin, or IL-1 receptor antagonist (IL-1Ra). (For further details please refer to supplemental methods).
IL-6, TNF-α and IL-1β were measured by ELISA^19 (Biosource, CA; Bender Medsystem, CA, respectively). Hippocampal IL-1β was measured by ELISA (Bender Medsystem, CA), as previously described^20. To confirm reliability of dilution linearity and spike recovery cytokine measurement were also performed in mice in which inflammation was induced with i.p. LPS (0111:B4, Invivogen, CA). (For further details please refer to supplemental methods).
Mice were randomly assigned to the following groups: surgery under general anesthesia (S), surgery under general anesthesia plus minocycline (M), surgery under general anesthesia plus enrofloxacin (E), surgery under general anesthesia plus interleukin-1 receptor antagonist (IL-1Ra) (I), surgery in IL1R^−/− mice under general anesthesia (K), general anesthesia without surgery (A), and no intervention (naïve wild-type, or naïve IL1R^−/−). Under aseptic conditions, groups of mice were subjected to an open tibial fracture of the left hind paw with an intramedullary fixation as previously described^2. Briefly, isoflurane (Abbot Laboratories Ltd., Queensborough, Kent, UK) 2.1% in air (1.5 MAC)^3 and buprenorphine (Reckitt Benckiser Healthcare Ltd, Hull, UK) 0.1 mg/kg subcutaneously (sc), were given to provide both surgical anesthesia and extended post-operative analgesia for the surgical intervention and post-surgical recovery. After shaving the overlying skin and disinfecting with chlorhexidine gluconate 0.5% and isopropyl alcohol 70% (PDI, Orangeburg, NY, USA) a fracture of the tibial shaft was created under direct vision. […]

## IL-1Ra: IL-1 receptor antagonist (Amgen, Anakinra)
[1]
  Freezing in the auditory-cued test after delay fear conditioning: showed no difference; also recorded: There was no difference between the groups
[2]
  Plasma IL-1β after surgery, effect of treatment: did not increase circulating IL-1β; also recorded: Surgery did not induce a significant increase of IL-1β at 24 h
